Where only a bound is given, the exact number is not on record here.

The target in experiment [1] is T1, Muscarinic acetylcholine receptor M2 (Homo sapiens, UniProt P08172).
T1 sequence (P08172 whole entry): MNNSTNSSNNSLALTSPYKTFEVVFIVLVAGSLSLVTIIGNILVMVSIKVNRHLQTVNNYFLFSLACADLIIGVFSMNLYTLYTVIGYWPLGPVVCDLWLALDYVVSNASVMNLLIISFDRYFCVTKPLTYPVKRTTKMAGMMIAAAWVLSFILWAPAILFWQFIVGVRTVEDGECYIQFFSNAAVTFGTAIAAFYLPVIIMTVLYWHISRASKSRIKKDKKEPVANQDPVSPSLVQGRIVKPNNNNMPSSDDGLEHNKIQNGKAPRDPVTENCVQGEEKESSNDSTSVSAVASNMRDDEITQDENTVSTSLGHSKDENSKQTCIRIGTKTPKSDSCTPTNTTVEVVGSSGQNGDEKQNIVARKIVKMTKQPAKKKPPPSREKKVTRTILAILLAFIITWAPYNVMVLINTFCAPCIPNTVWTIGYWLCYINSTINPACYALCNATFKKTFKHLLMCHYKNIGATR
Description: Displacement of [3H]NMS from human cloned muscarinic M2 receptor expressed in insect Sf9 cells.

The target of experiment [2] is Muscarinic acetylcholine receptor M3 (Homo sapiens, UniProt P20309). The experiment can be described thus: Displacement of [3H]NMS from human cloned muscarinic M3 receptor expressed in insect Sf9 cells.
Muscarinic acetylcholine receptor M3, sequence (P20309 whole entry): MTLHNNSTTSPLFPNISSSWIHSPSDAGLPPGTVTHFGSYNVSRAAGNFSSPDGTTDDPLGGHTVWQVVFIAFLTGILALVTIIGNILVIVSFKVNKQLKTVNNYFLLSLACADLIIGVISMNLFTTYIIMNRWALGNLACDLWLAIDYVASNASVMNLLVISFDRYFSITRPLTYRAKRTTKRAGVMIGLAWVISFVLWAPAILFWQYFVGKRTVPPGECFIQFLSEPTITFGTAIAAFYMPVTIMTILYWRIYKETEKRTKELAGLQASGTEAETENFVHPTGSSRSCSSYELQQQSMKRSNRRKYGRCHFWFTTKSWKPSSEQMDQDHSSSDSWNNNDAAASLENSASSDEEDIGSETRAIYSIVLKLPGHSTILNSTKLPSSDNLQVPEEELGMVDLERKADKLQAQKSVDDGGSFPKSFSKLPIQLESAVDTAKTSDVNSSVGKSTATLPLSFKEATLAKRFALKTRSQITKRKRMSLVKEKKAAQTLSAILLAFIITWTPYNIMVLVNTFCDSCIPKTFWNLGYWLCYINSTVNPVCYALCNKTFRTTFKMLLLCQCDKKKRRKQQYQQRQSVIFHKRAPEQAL
For experiment [3], the target named is T2, Muscarinic acetylcholine receptor M4 (Homo sapiens, UniProt P08173).
T2 sequence (P08173 whole entry): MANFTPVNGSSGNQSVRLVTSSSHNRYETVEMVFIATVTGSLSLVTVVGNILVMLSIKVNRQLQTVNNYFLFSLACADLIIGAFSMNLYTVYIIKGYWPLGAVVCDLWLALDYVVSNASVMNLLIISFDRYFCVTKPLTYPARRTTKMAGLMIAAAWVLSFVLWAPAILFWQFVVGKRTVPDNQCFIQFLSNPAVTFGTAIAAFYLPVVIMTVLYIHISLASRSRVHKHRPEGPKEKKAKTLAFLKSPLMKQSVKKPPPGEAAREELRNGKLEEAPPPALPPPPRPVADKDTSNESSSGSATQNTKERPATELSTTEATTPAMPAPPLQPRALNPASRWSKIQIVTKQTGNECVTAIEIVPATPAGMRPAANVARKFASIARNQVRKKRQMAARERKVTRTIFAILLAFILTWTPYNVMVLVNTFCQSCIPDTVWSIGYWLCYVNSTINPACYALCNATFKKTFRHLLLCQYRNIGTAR
The experiment can be described thus: Displacement of [3H]NMS from human cloned muscarinic M4 receptor expressed in insect Sf9 cells.

Experiment [4] addresses T3, Muscarinic acetylcholine receptor M5 (Homo sapiens, UniProt P08912).
T3 sequence (P08912 whole entry): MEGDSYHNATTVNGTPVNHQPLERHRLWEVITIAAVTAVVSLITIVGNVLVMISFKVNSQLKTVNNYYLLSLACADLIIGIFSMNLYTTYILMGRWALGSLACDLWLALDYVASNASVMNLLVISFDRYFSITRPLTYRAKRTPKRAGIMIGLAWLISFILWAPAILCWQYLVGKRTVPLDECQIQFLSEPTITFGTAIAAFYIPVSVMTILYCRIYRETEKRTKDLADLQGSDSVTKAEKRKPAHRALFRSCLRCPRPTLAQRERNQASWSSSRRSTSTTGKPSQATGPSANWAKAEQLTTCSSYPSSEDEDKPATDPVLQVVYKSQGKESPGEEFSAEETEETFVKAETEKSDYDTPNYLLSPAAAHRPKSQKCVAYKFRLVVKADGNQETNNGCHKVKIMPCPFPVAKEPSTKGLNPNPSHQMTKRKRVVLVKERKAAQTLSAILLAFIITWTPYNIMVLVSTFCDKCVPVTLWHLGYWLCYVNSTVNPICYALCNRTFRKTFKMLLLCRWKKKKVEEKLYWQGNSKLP
Description: Displacement of [3H]NMS from human cloned muscarinic M5 receptor expressed in insect Sf9 cells.

Experiment [5] concerns the target T4, Muscarinic acetylcholine receptor M1 (Homo sapiens, UniProt P11229).
T4 sequence (P11229 whole entry): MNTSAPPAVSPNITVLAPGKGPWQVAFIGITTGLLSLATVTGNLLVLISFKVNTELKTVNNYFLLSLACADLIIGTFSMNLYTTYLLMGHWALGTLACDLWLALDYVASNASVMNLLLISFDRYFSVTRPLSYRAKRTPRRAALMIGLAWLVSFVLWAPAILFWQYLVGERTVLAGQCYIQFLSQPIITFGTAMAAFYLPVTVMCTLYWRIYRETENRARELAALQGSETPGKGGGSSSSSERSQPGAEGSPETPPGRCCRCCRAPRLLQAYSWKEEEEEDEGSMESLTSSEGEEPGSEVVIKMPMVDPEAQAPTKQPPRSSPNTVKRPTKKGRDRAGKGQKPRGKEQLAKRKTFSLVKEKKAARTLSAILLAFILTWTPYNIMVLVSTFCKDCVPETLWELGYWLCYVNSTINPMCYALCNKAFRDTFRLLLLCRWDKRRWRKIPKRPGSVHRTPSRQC
Description: Displacement of [3H]NMS from human cloned muscarinic M1 receptor expressed in insect Sf9 cells.

`CC[C@@H](C)[C@@H](O)C(=O)OC[C@H]1CCN2CCC[C@@H]12` [CREMASTRINE]: the IC50 is above 5.52 µM in experiment [1]; 126 nM in experiment [2]; 498 nM in experiment [3]; 1220 nM in experiment [4]; 505 nM in experiment [5].

The record behind these values is ChEMBL document CHEMBL1158736, “Cremastrine, a pyrrolizidine alkaloid from Cremastra appendiculata” (J Nat Prod, 2005).
